# Data from patent US9533946B1, “N-carbamoylputrescine to enhance muscle protein synthesis” (CITRAGE, priority 2016, dated 2017).
# Marks after values point to notes of the source that are not given here.
# How the values were obtained:
# [1] = General effects of NCP-supplemented diet in rats (weight, behaviour, mortality, body composition); assay type: in vivo; conditions: for Initial weight: n = 7, before feeding period, mean ± SD; for Daily weight gain / Final weight / Weight gain: n = 7, mean ± SD
# Description: (§1) Eight-week old Sprague-Dawley rats (Charles Rivers, Lyon, France) were used. They were placed in individual cages and acclimatized for two weeks to our animal facility. During this period they received standard rodent chow (A04, UAR, Villemoisson-sur-Orge, France) and water ad libitum.
# (§2) After acclimatization twenty eight-month old rats were randomized into three groups in order to receive for two weeks a standard diet either alone (n=6; control group) or supplemented with NCP either 5 mg/kg/d (n=7, NCP5 group) or 50 mg/kg/d (n=7; NCP50 group). Their weight, behaviour and mortality were monitored throughout the feeding period.
# (§3) At the end of the feeding period, the rats, in the fasted state, were anesthetized by isoflurane inhalation and euthanized by decapitation.
# (§4) Mixed blood was collected onto heparinized tubes and rapidly centrifuged. The liver was immediately removed and weighed, and a sample was cut off, frozen in liquid nitrogen, and stored at −80° C. until analysis. For the jejunum and ileum, the intestine was washed with cold NaCl (0.9%) and reverted. Thereafter the intestinal mucosa was scraped, rapidly frozen in liquid nitrogen, and stored at −80° C. until analysis. Two muscles of the hindlimb, tibialis (rich in type II fibres) and soleus (rich in type I fibres), and the right kidney were rapidly removed, weighed, frozen in liquid nitrogen, and stored at −80° C. until analysis. Body composition was assessed by dissection and lean mass (carcass), visceral fat mass, sub-cutaneous fat mass (subcutaneous fat and skin) and mass of the viscera were determined.
# [2] = Plasma biological parameters after NCP-supplemented diet in rats; assay type: in vivo
# Description: as §1, §2, §3, §4
# (§5) Biological parameters studied were: • in tissues: NCP, protein and amino acid contents • in plasma: amino acids, liver function tests (plasma aspartate aminotransferase, alanine aminotransferase, alkaline phosphatase, and bilirubin), muscle enzymes (plasma creatine kinase, and lactate dehydrogenase), plasma electrolytes (sodium, potassium, chloride, bicarbonates), total protein, urea, creatinine, calcium, phosphate, magnesium, uric acid, glucose, cholesterol and triglycerides. […]
# [3] = test system: soleus (rich in type I fibres); assay: Soleus protein content after NCP-supplemented diet in rats; assay type: in vivo, Sprague-Dawley rats
# Description: as §1, §2, §3, §4, §5
# [4] = test system: soleus (rich in type I fibres); assay: Soleus amino acid content after NCP-supplemented diet in rats; assay type: in vivo, Sprague-Dawley rats; design: Soleus Serine content / Soleus Asparagine content / Soleus Glutamate content / Soleus Glycine content / Soleus Citrulline content / Soleus Valine content / Soleus Isoleucine content / Soleus Leucine content / Soleus Tyrosine content / Soleus Phenylalanine content / Soleus Ornithine content / Soleus Histidine content / Soleus Lysine content / Soleus Arginine content / Soleus Proline content / Soleus Taurine content / Soleus Aspartate content / Soleus Threonine content: unit not given here
# Description: as §1
# After acclimatization twenty eight-month old rats were randomized into three groups in order to receive for two weeks a standard diet either alone (n=6; control group) or supplemented with NCP either 5 mg/kg/d (n=7, […]; […]). Their weight, behaviour and mortality were monitored throughout the feeding period.
# as §3, §4
# Biological parameters studied were: • in tissues: NCP, protein and amino acid contents • in plasma: amino acids, liver function tests (plasma aspartate aminotransferase, alanine aminotransferase, alkaline phosphatase, and bilirubin), muscle enzymes (plasma creatine kinase, and lactate dehydrogenase), plasma electrolytes (sodium, potassium, chloride, bicarbonates), total protein, urea, creatinine, calcium, phosphate, magnesium, uric acid, glucose, cholesterol and triglycerides. Results General Effects of N-carbamoyl Putrescine
# [5] = test system: liver, kidney, tibialis, and jejunal and ileal mucosa; assay: Protein contents of other tissues after NCP-supplemented diet in rats; assay type: in vivo, Sprague-Dawley rats; conditions: between the three groups
# Description: as §1, §2, §3
# as §4, with “Two muscles of the hindlimb, tibialis (rich in type II fibres) and soleus (rich in type I fibres), and the right kidney were rapidly removed, weighed, frozen in liquid nitrogen, and stored at −80° C. until analysis.” left out, “determined. […]” for “determined.”
# [6] = rats, NCP 5 mg/kg/d in diet, two weeks
# [7] = rats, NCP 50 mg/kg/d in diet, two weeks
# [8] = rats, NCP 5 or 50 mg/kg/d in diet, two weeks
smiles,measurement,setting,value
"NCCCCNC(N)=O [NCP, 1-(4-aminobutyl) urea]",side effects,"[1]; mammals, after administration",no side effects were noticed
same,Initial weight,"[1]; rats, NCP 5 mg/kg group",264.9 ± 16 g
same,Daily weight gain,[1]; [6],3.44 ± 0.58 g/day
same,Final weight,[1]; [6],313.1 ± 18.1 g
same,Weight gain,[1]; [6],48.1 ± 8.1 g
same,Initial weight,"[1]; rats, NCP 50 mg/kg group",264.9 ± 8.2 g
same,Daily weight gain,[1]; [7],3.65 ± 0.62 g/day
same,Final weight,[1]; [7],316.1 ± 13.9 g
same,Weight gain,[1]; [7],51.2 ± 8.7 g
same,general behavior,[1]; [8],No rats showed abnormal general behavior
same,weight gain compared to controls,[1]; [8],no difference
same,"body composition (lean mass, fat mass, mass of the viscera, liver mass)","[1]; rats, NCP 5 or 50 mg/kg/d vs control, data not shown",no difference between the groups
same,Plasma urea,"[2]; NCP50 group vs NCP5, FIG. 1",higher
same,Plasma urea,[2]; the two NCP-supplemented groups compared to control rats,no difference
same,"plasma electrolytes, hepatic and muscular enzymes, creatinine, glucose, cholesterol, triglycerides and uric acid levels","[2]; three groups (control, NCP5, NCP50), data not shown",No difference
same,protein level in soleus,"[3]; NCP5 group (5 mg/kg/d, two weeks), control 12.7±1.8, p=0.018 vs control",14.5±0.7 g/100 g
same,protein level in soleus vs control group,"[3]; NCP5 vs control, p=0.018",higher
same,protein level in soleus,"[3]; NCP50 group (50 mg/kg/d, two weeks), control 12.7±1.8",14.0±0.8 g/100 g
same,Soleus Alanine content,"[4]; NCP 5 mg/kg, n = 7, mean ± SD",1735 ± 385^ab μmol/g
same,Soleus Arginine content,"[4]; NCP 5 mg/kg, n = 7, mean ± SD",381 ± 115
same,Soleus Asparagine content,"[4]; NCP 5 mg/kg, n = 7, mean ± SD",519 ± 106
same,Soleus Aspartate content,"[4]; NCP 5 mg/kg, n = 7, mean ± SD",4195 ± 703
same,Soleus Citrulline content,"[4]; NCP 5 mg/kg, n = 7, mean ± SD",351 ± 53
same,Soleus Glutamate content,"[4]; NCP 5 mg/kg, n = 7, mean ± SD",3753 ± 684
same,Soleus Glutamine content,"[4]; NCP 5 mg/kg, n = 7, mean ± SD",7605 ± 1016^ab μmol/g
same,Soleus Glycine content,"[4]; NCP 5 mg/kg, n = 7, mean ± SD",1932 ± 516
same,Soleus Histidine content,"[4]; NCP 5 mg/kg, n = 7, mean ± SD",415 ± 50^a μmol/g
same,Soleus Isoleucine content,"[4]; NCP 5 mg/kg, n = 7, mean ± SD",83 ± 17
same,Soleus Leucine content,"[4]; NCP 5 mg/kg, n = 7, mean ± SD",103 ± 23
same,Soleus Lysine content,"[4]; NCP 5 mg/kg, n = 7, mean ± SD",933 ± 222
same,Soleus Ornithine content,"[4]; NCP 5 mg/kg, n = 7, mean ± SD",75 ± 12
same,Soleus Phenylalanine content,"[4]; NCP 5 mg/kg, n = 7, mean ± SD",75 ± 19
same,Soleus Proline content,"[4]; NCP 5 mg/kg, n = 7, mean ± SD",196 ± 42
same,Soleus Serine content,"[4]; NCP 5 mg/kg, n = 7, mean ± SD",1933 ± 384
same,Soleus Taurine content,"[4]; NCP 5 mg/kg, n = 7, mean ± SD",23882 ± 2585
same,Soleus Threonine content,"[4]; NCP 5 mg/kg, n = 7, mean ± SD",512 ± 109
same,Soleus Tyrosine content,"[4]; NCP 5 mg/kg, n = 7, mean ± SD",106 ± 15
same,Soleus Valine content,"[4]; NCP 5 mg/kg, n = 7, mean ± SD",182 ± 22
same,Soleus Alanine content,"[4]; NCP 50 mg/kg, n = 6, mean ± SD",2025 ± 182^b μmol/g
same,Soleus Arginine content,"[4]; NCP 50 mg/kg, n = 6, mean ± SD",395 ± 62
same,Soleus Asparagine content,"[4]; NCP 50 mg/kg, n = 6, mean ± SD",538 ± 124
same,Soleus Aspartate content,"[4]; NCP 50 mg/kg, n = 6, mean ± SD",4742 ± 1443
same,Soleus Citrulline content,"[4]; NCP 50 mg/kg, n = 6, mean ± SD",379 ± 65
same,Soleus Glutamate content,"[4]; NCP 50 mg/kg, n = 6, mean ± SD",4074 ± 390
same,Soleus Glutamine content,"[4]; NCP 50 mg/kg, n = 6, mean ± SD",8547 ± 988^b μmol/g
same,Soleus Glycine content,"[4]; NCP 50 mg/kg, n = 6, mean ± SD",2145 ± 153
same,Soleus Histidine content,"[4]; NCP 50 mg/kg, n = 6, mean ± SD",494 ± 6
same,Soleus Isoleucine content,"[4]; NCP 50 mg/kg, n = 6, mean ± SD",91 ± 22
same,Soleus Leucine content,"[4]; NCP 50 mg/kg, n = 6, mean ± SD",113 ± 32
same,Soleus Lysine content,"[4]; NCP 50 mg/kg, n = 6, mean ± SD",1009 ± 168
same,Soleus Ornithine content,"[4]; NCP 50 mg/kg, n = 6, mean ± SD",74 ± 15
same,Soleus Phenylalanine content,"[4]; NCP 50 mg/kg, n = 6, mean ± SD",77 ± 11
same,Soleus Proline content,"[4]; NCP 50 mg/kg, n = 6, mean ± SD",199 ± 26
same,Soleus Serine content,"[4]; NCP 50 mg/kg, n = 6, mean ± SD",1964 ± 248
same,Soleus Taurine content,"[4]; NCP 50 mg/kg, n = 6, mean ± SD",25223 ± 1987
same,Soleus Threonine content,"[4]; NCP 50 mg/kg, n = 6, mean ± SD",571 ± 67
same,Soleus Tyrosine content,"[4]; NCP 50 mg/kg, n = 6, mean ± SD",126 ± 21
same,Soleus Valine content,"[4]; NCP 50 mg/kg, n = 6, mean ± SD",194 ± 24
same,"concentration of Glutamine, alanine and histidine in soleus muscle","[4]; with NCP administration, positive correlation of glutamine and alanine with dose (p=0.015, p=0.013)",significantly increased
same,"liver, kidney, tibialis, and jejunal and ileal mucosa protein contents",[5],similar
